Holding throughout (assay type): cell-based, human
In one experiment the test system is Hela S3. As to the kind of experiment: Anti-Fas (CH-11) induced apoptosis with kinase inhibitors, FACS sub-G1 nuclei, Hela S3. Conditions: Hela S3, 100 ng/ml CH-11, no FCS; SU 5402 10 μM, AG 1295 1 μM, SB 203580 10 μM. As for the experimental part: (§1) Cells were grown in Ham's F12 medium without FCS and treated with 100 ng/ml anti-Fas antibody CH-11 with and without inhibitors. Apoptosis was measured by FACS analysis as described in the examples. SU 5402: 10 μM, AG 1295: 1 μM, SB 203580: 10 μM, PD 98059: 25 μM.
(§2) 50000 cells per well obtained from the parental cell line Hela S3 or from the clones, respectively, were grown in a 12 well cell culture dish for 2 days in 2 ml Ham's F12 medium containing 10% FCS. On the third day the cells were washed twice with 1 ml Ham's F12 medium and then the medium exchanged against 1 ml Ham's F12 medium. On the next day the medium was supplemented with the respective inhibitors and 100 to 200 ng/ml CH-11. On the next day the medium was decanted and transferred to an Eppendorf tube. The cells were washed once with 200 μl PBS, the PBS was transferred to the respective Eppendorf tube. Then the remaining cells were also transferred to the respective Eppendorf tube after treatment with EDTA/trypsin in PBS. The cells were pelleted by centrifugation, suspended in 500 μl hypotonic buffer (0.1% sodium citrate, 0.1% Triton-X100, 20 μg/ml propidium iodide) and incubated for 2-24 hours at 4° C. The resutling cell nuclei were analyzed by FACS.
(§3) The propidium iodide fluorescence of single nuclei was determined using a FACSCalibur (Becton Dickinson) cytometer. The forward scatter light (FSC) and the side scatter light (SSC) were recorded simultaneously. The FSC peak was adjusted at channel 500 in a 1024 channel linear scale and the red fluorescence peak at channel 200 of a logarithmic scale. The FSC cut-off value was determined by gating to 95% of the greatest nuclei of a negative control without supplements. Nuclei were classified as apoptotic when a subdiploid signal between the G1/G0 peak and channel 10 was present.

The subject of experiment [1] is clone 14 (apoptosis-resistant Hela S3 clone). The experiment in a line: Anti-Fas (CH-11) induced apoptosis with kinase inhibitors, FACS sub-G1 nuclei, clone 14. Conditions: clone 14, 100 ng/ml CH-11, no FCS; for increase in apoptosis: SU 5402 10 μM, SB 203580 10 μM; for change in number of apoptotic cells / apoptosis rate (in words): AG 1295 1 μM, PD 98059 25 μM. As for the experimental part: as §1
The cervix carcinoma cell line Hela S3 (ATCC CCL-2.2) was plated on 10 cm cell culture dishes (10^5 cells) in Ham's F12 growth medium containing 10% FCS. On the next day the medium was exchanged against medium without FCS supplemented with 100 ng/ml apoptosis activating anti-Fas antibody CH-11 (Coulter Immunotech). After 3 days when most of the cells were dead, the medium was exchanged once more against the medium containing 10% FCS without antibody. The surviving cells were clonally cultivated for 3 weeks. The clones were picked and expanded.
as §2, §3

In experiment [2] the test system is clone 20 (apoptosis-resistant Hela S3 clone). As to the kind of experiment: Anti-Fas (CH-11) induced apoptosis with kinase inhibitors, FACS sub-G1 nuclei, clone 20. Conditions: clone 20, 100 ng/ml CH-11, no FCS; SB 203580 10 μM, PD 98059 25 μM. As for the experimental part:
as §1
(§4) The cervix carcinoma cell line Hela S3 (ATCC CCL-2.2) was plated on 10 cm cell culture dishes (10^5 cells) in Ham's F12 growth medium containing 10% FCS. On the next day the medium was exchanged against medium without FCS supplemented with 100 ng/ml apoptosis activating anti-Fas antibody CH-11 (Coulter Immunotech). […]
(§5) 50000 cells per well obtained from the parental cell line Hela S3 or from the clones, respectively, were grown in a 12 well cell culture dish for 2 days in 2 ml Ham's F12 medium containing 10% FCS. […] The resutling cell nuclei were analyzed by FACS.
(§6) The propidium iodide fluorescence of single nuclei was determined using a FACSCalibur (Becton Dickinson) cytometer. The forward scatter light (FSC) and the side scatter light (SSC) were recorded simultaneously. The FSC peak was adjusted at channel 500 in a 1024 channel linear scale and the red fluorescence peak at channel 200 of a logarithmic scale. The FSC cut-off value was determined by gating to 95% of the greatest nuclei of a negative control without supplements. […]

Experiment [3] has as its system clone 5 (apoptosis-resistant Hela S3 clone). As to the kind of experiment: Anti-Fas (CH-11) induced apoptosis with kinase inhibitors, FACS sub-G1 nuclei, clone 5. Conditions: clone 5, CH-11; SU 5402, AG 1295. How it is done:
as §1, §4, §5, §6

In the case of `C[S+]([O-])c1ccc(-c2nc(-c3ccncc3)c(-c3ccc(F)cc3)[nH]2)cc1` (centres unmarked) [SB 203580], the figures for the increase in apoptosis (in the experiment with Hela S3; in experiment [1]) were 25% and 60%, respectively. In experiment [2], the “change in apoptosis rate (in words)” value was “slight increase of apoptosis”.
As to `Cc1c[nH]c(/C=C2\C(=O)Nc3ccccc32)c1CCC(=O)O` [SU 5402], the increase in apoptosis entry in the experiment on Hela S3 was “about 50%”; in experiment [1], around 300%; in experiment [3], “about 50%”.
For `Cc1cc2ncc(-c3ccccc3)nc2cc1C` [AG 1295], the increase in apoptosis result in the experiment on Hela S3 was “about 30%”; in experiment [3] it was 30%. In experiment [1], the “change in number of apoptotic cells / apoptosis rate (in words)” value is recorded as “nearly in a doubling of the number of apoptotic cells”.
As to `COc1cccc(-c2cc(=O)c3ccccc3o2)c1N` [PD 98059], in experiment [1], the “change in number of apoptotic cells / apoptosis rate (in words)” value is “doubling of the apoptosis rate”. Further, in experiment [2], the “change in apoptosis rate (in words)” value is recorded as “triples the apoptosis rate”.

Values taken from patent publication US20040110177A1, “Method for identifying functional nucleic acids” (priority 2003, published 2004).
